Laboratory results taken from patent US20220202905A1, “COMPOSITION FOR PREVENTING OR TREATING NEUROTROPHIC KERATITIS WHICH CONTAINS PACAP PEPTIDE OR STABILIZED PACAP PEPTIDE” (SENJU PHARMACEUTICAL CO., LTD., priority 2019, published 2022).
Square brackets hold non-standard residues; d marks the D form. Peptide text beside a SMILES is read from it. * marks the point of attachment. Ala(1H-tetrazol-5-yl) = N[C@@H](Cc1nnn[nH]1)C(=O)O; Ms = CS(=O)(=O)*

Test: Peptide stability test, Tris buffer (pH 7.0), 60° C. storage, HPLC remaining rate
Format: physicochemical
Details: 100 μM in Tris buffer pH 7.0
Protocol: Peptides 1, 2 and 6 to 9 synthesized in Example 2 were weighed and dissolved in Tris buffer (pH 7.0) to prepare 1.0 mM peptide solutions. Each solution was filtered with a Chromatdisk (product of Merck Millipore, Millex-GV, 0.22 μm). The filtrate was diluted to 100 μM with Tris buffer (pH 7.0) and dispensed into a tube (Protein LoBind Tube by Eppendorf Co.). The prepared peptide solutions were incubated for 1 week or 2 weeks in a 60° C. thermostatic bath to obtain stored samples. A simultaneously prepared sample among the peptide solutions that was not stored was used as a standard sample (initial sample). The standard sample and the stored samples were stored at −30° C. until sample analysis. Each stored sample was measured under the following HPLC analysis conditions 2, and the remaining rate after correction for water for each peptide among the stored samples was calculated in the same manner as Example 3. Guard column: XSelect CSH C18 by Waters Co., 5 μm, 4.6×20 mm Guard Cartridge Detection wavelength: 220 nm Mobile phase A: 0.1% formic acid aqueous solution Mobile phase B: 0.1% acetonitrile formate solution Measuring time: 20 minutes Measuring sample injection rate: 50 μL Flow rate: 1.0 mL/min Column temperature: 40° C. Sample cooler: 25° C. Mobile phase delivery: The mixing ratio of mobile phase A and mobile phase B was varied as shown in Table 5 for linear concentration gradient control. Peptides 12 to 25, 27 and 28 synthesized in Example 2 were weighed and dissolved in Tris buffer (pH 7.0) to prepare 1.0 mM peptide solutions. Each solution was filtered with a Chromatdisk (product of Merck Millipore, Millex-GV, 0.22 μm). The filtrate was diluted to 100 μM with Tris buffer (pH 7.0) and dispensed into a tube (Protein LoBind Tube by Eppendorf Co.). The prepared peptide solutions were incubated for one week or 2 weeks in a 60° C. thermostatic bath to obtain stored samples. A simultaneously prepared sample among the peptide solutions that was not stored was used as a standard sample (initial sample). The standard sample and the stored samples were stored at −30° C. until sample analysis. The remaining rate after correction for water for each peptide among the stored samples was calculated in the same manner as Example 4, and the results are shown in Table 7. Peptides 29 to 34 synthesized in Example 2 were weighed and dissolved in Tris buffer (pH 7.0) to prepare 1.0 mM peptide solutions. Each solution was filtered with a Chromatdisk (product of Merck Millipore, Millex-GV, 0.22 μm). The filtrate was diluted to 100 μM with Tris buffer (pH 7.0) and dispensed into a tube (Protein LoBind Tube by Eppendorf Co.). The prepared peptide solutions were incubated for 2 weeks in a 60° C. thermostatic bath to obtain stored samples. A simultaneously prepared sample among the peptide solutions that was not stored was used as a standard sample (initial sample). The standard sample and the stored samples were stored at −30° C. until sample analysis. The remaining rate after correction for water for each peptide among the stored samples was calculated in the same manner as Example 4, and the results are shown in Table 7-2. Peptide 26 synthesized in Example 2 was weighed and dissolved in Tris buffer (pH 7.0) to prepare a 1.0 mM peptide solution. The solution was filtered with a Chromatdisk (product of Merck Millipore, Millex-GV, 0.22 μm). The filtrate was diluted to 100 μM with Tris buffer (pH 7.0) and dispensed into a tube (Protein LoBind Tube by Eppendorf Co.). The prepared peptide solution was incubated for one week or 2 weeks in a 60° C. thermostatic bath to obtain stored samples. A simultaneously prepared sample among the peptide solutions that was not stored was used as a standard sample (initial sample). The standard sample and the stored sample were stored at −30° C. until sample analysis. […]

Row | remaining rate after correction for water, 60° C., 1 week preservation (Table 7) | remaining rate after correction for water, 60° C., 2 weeks preservation (Table 7) | Compound | also measured
1 | 98.2% |  | CC[C@H](C)[C@H](NC(=O)CNC(=O)[C@H](Cc1nnn[nH]1)NC(=O)[C@H](CO)NC(=O)[C@H](Cc1c[nH]cn1)NC(C)=O)C(=O)N[C@@H](Cc1ccccc1)C(=O)N[C@H](C(=O)N[C@@H](Cc1nnn[nH]1)C(=O)N[C@@H](CO)C(=O)N[C@@H](Cc1ccc(O)cc1)C(=O)N[C@@H](CO)C(=O)N[C@@H](CCCNC(=N)N)C(=O)N[C@@H](Cc1ccc(O)cc1)C(=O)N[C@@H](CCCNC(=N)N)C(=O)N[C@@H](CCCNC(=N)N)C(=O)N[C@@H](CCC(N)=O)C(=O)N[C@@H](CC(C)C)C(=O)N[C@@H](C)C(=O)N[C@H](C(=O)N[C@@H](CCCNC(=N)N)C(=O)N[C@@H](CCCNC(=N)N)C(=O)N[C@@H](Cc1ccc(O)cc1)C(=O)N[C@@H](CC(C)C)C(=O)N[C@@H](C)C(=O)N[C@@H](C)C(=O)N[C@H](C(=O)N[C@@H](CC(C)C)C(=O)NCC(=O)N[C@@H](CCCNC(=N)N)C(=O)N[C@@H](CCCNC(=N)N)C(N)=O)C(C)C)C(C)C)[C@@H](C)O [Peptide 22] (Ac-HS[Ala(1H-tetrazol-5-yl)]GIFT[Ala(1H-tetrazol-5-yl)]SYSRYRRQLAVRRYLAAVLGRR-NH2) | 
2 | 98.1% | 94.3% | CC[C@H](C)[C@H](NC(=O)CNC(=O)[C@H](Cc1nnn[nH]1)NC(=O)[C@H](C)NC(=O)[C@H](Cc1c[nH]cn1)NC(C)=O)C(=O)N[C@@H](Cc1ccccc1)C(=O)N[C@H](C(=O)N[C@@H](Cc1nnn[nH]1)C(=O)N[C@@H](C)C(=O)N[C@@H](Cc1ccc(O)cc1)C(=O)N[C@@H](CO)C(=O)N[C@@H](CCCNC(=N)N)C(=O)N[C@@H](Cc1ccc(O)cc1)C(=O)N[C@@H](CCCNC(=N)N)C(=O)N[C@@H](CCCCN)C(=O)N[C@@H](CCC(N)=O)C(=O)N[C@@H](CC(C)C)C(=O)N[C@@H](C)C(=O)N[C@H](C(=O)N[C@@H](CCCCN)C(=O)N[C@@H](CCCCN)C(=O)N[C@@H](Cc1ccc(O)cc1)C(=O)N[C@@H](CC(C)C)C(=O)N[C@@H](C)C(=O)N[C@@H](C)C(=O)N[C@H](C(=O)N[C@@H](CC(C)C)C(N)=O)C(C)C)C(C)C)[C@@H](C)O [Peptide 24] (Ac-HA[Ala(1H-tetrazol-5-yl)]GIFT[Ala(1H-tetrazol-5-yl)]AYSRYRKQLAVKKYLAAVL-NH2) | 
3 | 95.8% | 91.2% | CC[C@H](C)[C@H](NC(=O)CNC(=O)[C@H](Cc1nnn[nH]1)NC(=O)[C@H](C)NC(=O)[C@H](Cc1c[nH]cn1)NC(C)=O)C(=O)N[C@@H](Cc1ccccc1)C(=O)N[C@H](C(=O)N[C@@H](Cc1nnn[nH]1)C(=O)N[C@@H](CO)C(=O)N[C@@H](Cc1ccc(O)cc1)C(=O)N[C@@H](CO)C(=O)N[C@@H](CCCNC(=N)N)C(=O)N[C@@H](Cc1ccc(O)cc1)C(=O)N[C@@H](CCCNC(=N)N)C(=O)N[C@@H](CCCCN)C(=O)N[C@@H](CCC(N)=O)C(=O)N[C@@H](C)C(=O)N[C@@H](C)C(=O)N[C@H](C(=O)N[C@@H](CCCCN)C(=O)N[C@@H](CCCCN)C(=O)N[C@@H](Cc1ccc(O)cc1)C(=O)N[C@@H](CC(C)C)C(=O)N[C@@H](C)C(=O)N[C@@H](C)C(=O)N[C@H](C(=O)N[C@@H](CC(C)C)C(N)=O)C(C)C)C(C)C)[C@@H](C)O [Peptide 25] (Ac-HA[Ala(1H-tetrazol-5-yl)]GIFT[Ala(1H-tetrazol-5-yl)]SYSRYRKQAAVKKYLAAVL-NH2) | 
4 |  |  | CC[C@H](C)[C@H](NC(=O)CNC(=O)[C@H](Cc1nnn[nH]1)NC(=O)[C@H](CO)NC(=O)[C@H](Cc1c[nH]cn1)NC(C)=O)C(=O)N[C@@H](Cc1ccccc1)C(=O)N[C@H](C(=O)N[C@@H](Cc1nnn[nH]1)C(=O)N[C@@H](C)C(=O)N[C@@H](Cc1ccc(O)cc1)C(=O)N[C@@H](CO)C(=O)N[C@@H](CCCNC(=N)N)C(=O)N[C@@H](Cc1ccc(O)cc1)C(=O)N[C@@H](CCCNC(=N)N)C(=O)N[C@@H](CCCCN)C(=O)N[C@@H](C)C(=O)N[C@@H](CC(C)C)C(=O)N[C@@H](C)C(=O)N[C@H](C(=O)N[C@@H](CCCCN)C(=O)N[C@@H](CCCCN)C(=O)N[C@@H](Cc1ccc(O)cc1)C(=O)N[C@@H](CC(C)C)C(=O)N[C@@H](C)C(=O)N[C@@H](C)C(=O)N[C@H](C(=O)N[C@@H](CC(C)C)C(N)=O)C(C)C)C(C)C)[C@@H](C)O [Peptide 26] (Ac-HS[Ala(1H-tetrazol-5-yl)]GIFT[Ala(1H-tetrazol-5-yl)]AYSRYRKALAVKKYLAAVL-NH2) | remaining rate after correction for water, 60° C., 1 week preservation (Table 10, HPLC conditions 3): 98.0%; remaining rate after correction for water, 60° C., 2 weeks preservation (Table 10, HPLC conditions 3): 94.8%
5 | 94.6% | 90.5% | CC[C@H](C)[C@H](NC(=O)CNC(=O)[C@H](Cc1nnn[nH]1)NC(=O)[C@H](CO)NC(=O)[C@H](Cc1c[nH]cn1)NC(C)=O)C(=O)N[C@@H](Cc1ccccc1)C(=O)N[C@H](C(=O)N[C@@H](Cc1nnn[nH]1)C(=O)N[C@@H](CO)C(=O)N[C@@H](Cc1ccc(O)cc1)C(=O)N[C@@H](CO)C(=O)N[C@@H](CCCNC(=N)N)C(=O)N[C@@H](Cc1ccc(O)cc1)C(=O)N[C@@H](CCCNC(=N)N)C(=O)N[C@@H](CCCCN)C(=O)N[C@@H](C)C(=O)N[C@@H](C)C(=O)N[C@@H](C)C(=O)N[C@H](C(=O)N[C@@H](CCCCN)C(=O)N[C@@H](CCCCN)C(=O)N[C@@H](Cc1ccc(O)cc1)C(=O)N[C@@H](CC(C)C)C(=O)N[C@@H](C)C(=O)N[C@@H](C)C(=O)N[C@H](C(=O)N[C@@H](CC(C)C)C(N)=O)C(C)C)C(C)C)[C@@H](C)O [Peptide 28] (Ac-HS[Ala(1H-tetrazol-5-yl)]GIFT[Ala(1H-tetrazol-5-yl)]SYSRYRKAAAVKKYLAAVL-NH2) | 
6 |  |  | CC[C@H](C)[C@H](NC(=O)CNC(=O)[C@H](Cc1nnn[nH]1)NC(=O)[C@H](CO)NC(=O)[C@H](Cc1c[nH]cn1)NS(C)(=O)=O)C(=O)N[C@@H](Cc1ccccc1)C(=O)N[C@H](C(=O)N[C@@H](Cc1nnn[nH]1)C(=O)N[C@@H](C)C(=O)N[C@@H](Cc1ccc(O)cc1)C(=O)N[C@@H](CO)C(=O)N[C@@H](CCCNC(=N)N)C(=O)N[C@@H](Cc1ccc(O)cc1)C(=O)N[C@@H](CCCNC(=N)N)C(=O)N[C@@H](CCCCN)C(=O)N[C@@H](CCC(N)=O)C(=O)N[C@@H](CC(C)C)C(=O)N[C@@H](C)C(=O)N[C@H](C(=O)N[C@@H](CCCCN)C(=O)N[C@@H](CCCCN)C(=O)N[C@@H](Cc1ccc(O)cc1)C(=O)N[C@@H](CC(C)C)C(=O)N[C@@H](C)C(=O)N[C@@H](C)C(=O)N[C@H](C(=O)N[C@@H](CC(C)C)C(N)=O)C(C)C)C(C)C)[C@@H](C)O [Peptide 29] (Ms-HS[Ala(1H-tetrazol-5-yl)]GIFT[Ala(1H-tetrazol-5-yl)]AYSRYRKQLAVKKYLAAVL-NH2) | remaining rate after correction for water, 60° C., 2 weeks preservation (Table 7-2): 91.9%
7 |  |  | CC[C@H](C)[C@H](NC(=O)[C@H](C)NC(=O)[C@H](Cc1nnn[nH]1)NC(=O)[C@H](CO)NC(=O)[C@H](Cc1c[nH]cn1)NS(C)(=O)=O)C(=O)N[C@@H](Cc1ccccc1)C(=O)N[C@H](C(=O)N[C@@H](Cc1nnn[nH]1)C(=O)N[C@@H](CO)C(=O)N[C@@H](Cc1ccc(O)cc1)C(=O)N[C@@H](CO)C(=O)N[C@@H](CCCNC(=N)N)C(=O)N[C@@H](Cc1ccc(O)cc1)C(=O)N[C@@H](CCCNC(=N)N)C(=O)N[C@@H](CCCCN)C(=O)N[C@@H](CCC(N)=O)C(=O)N[C@@H](CC(C)C)C(=O)N[C@@H](C)C(=O)N[C@H](C(=O)N[C@@H](CCCCN)C(=O)N[C@@H](CCCCN)C(=O)N[C@@H](Cc1ccc(O)cc1)C(=O)N[C@@H](CC(C)C)C(=O)N[C@@H](C)C(=O)N[C@@H](C)C(=O)N[C@H](C(=O)N[C@@H](CC(C)C)C(N)=O)C(C)C)C(C)C)[C@@H](C)O [Peptide 30] (Ms-HS[Ala(1H-tetrazol-5-yl)]AIFT[Ala(1H-tetrazol-5-yl)]SYSRYRKQLAVKKYLAAVL-NH2) | remaining rate after correction for water, 60° C., 2 weeks preservation (Table 7-2): 92.2%
